Data: the NIST ThermoML archive (doi:10.1021/acs.jced.6b00350)
Values joined by “and” are separate entries in the source; they are usually repeats but may differ in a detail not shown here. Equal entries are not always repeated. ± gives the expanded uncertainty stated by the source.

Conditions: Liquid, Hot wire method

FC(F)CC(F)(F)F [1,1,1,3,3-pentafluoropropane]
Conditions | thermal conductivity
283.24 K, 29153 kPa | 0.1046 ± 0.0013 W/m/K
283.25 K, 29157 kPa | 0.1041 ± 0.0013 W/m/K
283.29 K, 22330 kPa | 0.1022 ± 0.0013 W/m/K
283.3 K, 22338 kPa | 0.102 ± 0.0013 W/m/K
283.31 K, 16102 kPa | 0.09978 ± 0.0013 W/m/K
283.34 K, 10490 kPa | 0.09781 ± 0.0013 W/m/K
283.35 K, 10482 kPa | 0.09779 ± 0.0013 W/m/K
283.39 K, 5078 kPa | 0.09561 ± 0.0012 W/m/K
283.39 K, 5084 kPa | 0.09578 ± 0.0012 W/m/K
283.4 K, 124 kPa | 0.09369 ± 0.0012 W/m/K
297.28 K, 238 kPa | 0.08846 ± 0.0011 W/m/K and 0.0884 ± 0.0011 W/m/K
297.3 K, 6681 kPa | 0.09147 ± 0.0012 W/m/K
297.31 K, 6682 kPa | 0.09132 ± 0.0012 W/m/K
297.33 K, 12567 kPa | 0.09379 ± 0.0012 W/m/K
297.33 K, 12571 kPa | 0.09396 ± 0.0012 W/m/K
297.36 K, 12582 kPa | 0.09405 ± 0.0012 W/m/K
297.37 K, 12586 kPa | 0.09376 ± 0.0012 W/m/K
297.49 K, 19332 kPa | 0.09652 ± 0.0012 W/m/K
297.49 K, 19337 kPa | 0.09665 ± 0.0012 W/m/K
297.69 K, 229 kPa | 0.08847 ± 0.0011 W/m/K
297.69 K, 239 kPa | 0.0881 ± 0.0011 W/m/K
297.7 K, 6677 kPa | 0.0909 ± 0.0012 W/m/K and 0.09107 ± 0.0012 W/m/K
297.72 K, 12571 kPa | 0.09392 ± 0.0012 W/m/K
297.73 K, 12572 kPa | 0.0939 ± 0.0012 W/m/K
297.75 K, 12582 kPa | 0.09397 ± 0.0012 W/m/K
297.75 K, 12583 kPa | 0.09395 ± 0.0012 W/m/K
297.86 K, 19322 kPa | 0.09664 ± 0.0012 W/m/K
297.86 K, 19340 kPa | 0.09658 ± 0.0012 W/m/K
298.13 K, 233 kPa | 0.08778 ± 0.0011 W/m/K
298.14 K, 234 kPa | 0.08789 ± 0.0011 W/m/K
298.14 K, 6680 kPa | 0.09232 ± 0.0012 W/m/K and 0.09104 ± 0.0012 W/m/K
298.14 K, 12568 kPa | 0.09369 ± 0.0012 W/m/K
298.14 K, 12571 kPa | 0.09358 ± 0.0012 W/m/K
298.17 K, 12583 kPa | 0.09365 ± 0.0012 W/m/K
298.18 K, 12574 kPa | 0.09352 ± 0.0012 W/m/K
298.26 K, 19324 kPa | 0.09657 ± 0.0012 W/m/K
298.27 K, 19334 kPa | 0.09654 ± 0.0012 W/m/K
298.58 K, 12568 kPa | 0.09385 ± 0.0012 W/m/K
298.59 K, 12563 kPa | 0.09379 ± 0.0012 W/m/K
298.6 K, 6668 kPa | 0.09111 ± 0.0012 W/m/K
298.6 K, 6673 kPa | 0.0911 ± 0.0012 W/m/K
298.61 K, 230 kPa | 0.08804 ± 0.0011 W/m/K
298.61 K, 234 kPa | 0.08787 ± 0.0011 W/m/K
298.62 K, 12577 kPa | 0.09374 ± 0.0012 W/m/K
298.62 K, 12578 kPa | 0.09384 ± 0.0012 W/m/K
298.7 K, 19323 kPa | 0.09665 ± 0.0012 W/m/K
298.71 K, 19329 kPa | 0.09658 ± 0.0012 W/m/K
298.72 K, 26079 kPa | 0.09945 ± 0.0013 W/m/K
298.72 K, 26080 kPa | 0.09952 ± 0.0013 W/m/K
298.73 K, 33915 kPa | 0.1022 ± 0.0013 W/m/K
298.73 K, 33916 kPa | 0.1019 ± 0.0013 W/m/K
298.74 K, 41639 kPa | 0.1043 ± 0.0013 W/m/K
298.75 K, 41635 kPa | 0.1043 ± 0.0013 W/m/K
299.08 K, 12562 kPa | 0.09373 ± 0.0012 W/m/K
299.09 K, 12561 kPa | 0.09382 ± 0.0012 W/m/K
299.09 K, 26077 kPa | 0.09835 ± 0.0013 W/m/K
299.09 K, 26079 kPa | 0.09892 ± 0.0013 W/m/K
299.09 K, 33913 kPa | 0.1011 ± 0.0013 W/m/K
299.09 K, 33914 kPa | 0.1013 ± 0.0013 W/m/K
299.09 K, 41634 kPa | 0.1044 ± 0.0013 W/m/K
299.09 K, 41635 kPa | 0.1044 ± 0.0013 W/m/K
299.1 K, 6675 kPa | 0.09125 ± 0.0012 W/m/K
299.11 K, 6673 kPa | 0.0912 ± 0.0012 W/m/K
299.11 K, 12580 kPa | 0.0938 ± 0.0012 W/m/K
299.12 K, 12583 kPa | 0.09382 ± 0.0012 W/m/K
299.14 K, 227 kPa | 0.08804 ± 0.0011 W/m/K
299.14 K, 238 kPa | 0.08799 ± 0.0011 W/m/K
299.19 K, 19316 kPa | 0.09651 ± 0.0012 W/m/K
299.19 K, 19328 kPa | 0.09648 ± 0.0012 W/m/K
299.48 K, 41634 kPa | 0.1043 ± 0.0013 W/m/K
299.49 K, 33910 kPa | 0.1012 ± 0.0013 W/m/K
299.49 K, 33912 kPa | 0.1011 ± 0.0013 W/m/K
299.49 K, 41635 kPa | 0.1042 ± 0.0013 W/m/K
299.5 K, 26073 kPa | 0.09896 ± 0.0013 W/m/K
299.5 K, 26076 kPa | 0.099 ± 0.0013 W/m/K
299.89 K, 41632 kPa | 0.1042 ± 0.0013 W/m/K
299.9 K, 41629 kPa | 0.1042 ± 0.0013 W/m/K
299.91 K, 33908 kPa | 0.1013 ± 0.0013 W/m/K
299.92 K, 33910 kPa | 0.1013 ± 0.0013 W/m/K
299.93 K, 26071 kPa | 0.09862 ± 0.0013 W/m/K
299.93 K, 26073 kPa | 0.09884 ± 0.0013 W/m/K
300.35 K, 41624 kPa | 0.1042 ± 0.0013 W/m/K
300.35 K, 41629 kPa | 0.1044 ± 0.0013 W/m/K
300.37 K, 33905 kPa | 0.1015 ± 0.0013 W/m/K
300.38 K, 33907 kPa | 0.1015 ± 0.0013 W/m/K
300.4 K, 26067 kPa | 0.09874 ± 0.0013 W/m/K
300.41 K, 26067 kPa | 0.09891 ± 0.0013 W/m/K
301.58 K, 62451 kPa | 0.1103 ± 0.0014 W/m/K
301.58 K, 62455 kPa | 0.11 ± 0.0014 W/m/K
301.59 K, 68041 kPa | 0.1115 ± 0.0014 W/m/K
301.59 K, 68044 kPa | 0.1115 ± 0.0014 W/m/K
301.6 K, 9757 kPa | 0.09158 ± 0.0012 W/m/K
301.61 K, 9755 kPa | 0.09136 ± 0.0012 W/m/K
301.62 K, 52493 kPa | 0.1071 ± 0.0014 W/m/K
301.63 K, 4924 kPa | 0.08962 ± 0.0011 W/m/K
301.63 K, 52493 kPa | 0.1066 ± 0.0014 W/m/K
301.64 K, 4920 kPa | 0.089 ± 0.0011 W/m/K
301.65 K, 27815 kPa | 0.0982 ± 0.0013 W/m/K
301.65 K, 43573 kPa | 0.1041 ± 0.0013 W/m/K
301.65 K, 43574 kPa | 0.104 ± 0.0013 W/m/K
301.66 K, 27823 kPa | 0.09824 ± 0.0013 W/m/K
301.66 K, 35535 kPa | 0.1015 ± 0.0013 W/m/K
301.66 K, 35538 kPa | 0.1014 ± 0.0013 W/m/K
301.67 K, 289 kPa | 0.08665 ± 0.0011 W/m/K
301.67 K, 293 kPa | 0.08649 ± 0.0011 W/m/K
301.69 K, 21591 kPa | 0.09669 ± 0.0012 W/m/K
301.69 K, 21597 kPa | 0.09656 ± 0.0012 W/m/K
301.75 K, 15353 kPa | 0.09399 ± 0.0012 W/m/K
301.75 K, 15355 kPa | 0.0941 ± 0.0012 W/m/K
301.92 K, 62442 kPa | 0.11 ± 0.0014 W/m/K
301.92 K, 62448 kPa | 0.1098 ± 0.0014 W/m/K
301.93 K, 68033 kPa | 0.1115 ± 0.0014 W/m/K
301.93 K, 68038 kPa | 0.1117 ± 0.0014 W/m/K
301.97 K, 52486 kPa | 0.1073 ± 0.0014 W/m/K
301.97 K, 52491 kPa | 0.107 ± 0.0014 W/m/K
301.98 K, 9757 kPa | 0.09137 ± 0.0012 W/m/K
301.99 K, 9759 kPa | 0.09137 ± 0.0012 W/m/K
302 K, 43569 kPa | 0.104 ± 0.0013 W/m/K
302.01 K, 43570 kPa | 0.1038 ± 0.0013 W/m/K
302.02 K, 35523 kPa | 0.1016 ± 0.0013 W/m/K
302.02 K, 35525 kPa | 0.1012 ± 0.0013 W/m/K
302.03 K, 4920 kPa | 0.08894 ± 0.0011 W/m/K
302.03 K, 4923 kPa | 0.08935 ± 0.0011 W/m/K
302.03 K, 27815 kPa | 0.09838 ± 0.0013 W/m/K
302.03 K, 27819 kPa | 0.09867 ± 0.0013 W/m/K
302.07 K, 299 kPa | 0.08696 ± 0.0011 W/m/K
302.07 K, 21586 kPa | 0.09614 ± 0.0012 W/m/K
302.07 K, 21589 kPa | 0.09606 ± 0.0012 W/m/K
302.08 K, 296 kPa | 0.0866 ± 0.0011 W/m/K
302.14 K, 15358 kPa | 0.09347 ± 0.0012 W/m/K
302.14 K, 15361 kPa | 0.09381 ± 0.0012 W/m/K
302.29 K, 62439 kPa | 0.1101 ± 0.0014 W/m/K
302.29 K, 68021 kPa | 0.1115 ± 0.0014 W/m/K
302.3 K, 62445 kPa | 0.11 ± 0.0014 W/m/K
302.3 K, 68022 kPa | 0.1116 ± 0.0014 W/m/K
302.36 K, 52487 kPa | 0.1067 ± 0.0014 W/m/K
302.36 K, 52489 kPa | 0.107 ± 0.0014 W/m/K
302.39 K, 43573 kPa | 0.104 ± 0.0013 W/m/K
